Data as given in patent US20250333701A1, “COMPOSITIONS AND METHODS FOR GENERATING HEMATOPOIETIC STEM CELLS (HSCS)” (Washington University, priority 2019, published 2025).
Entries after “also recorded” stand apart in the source; their conditions may differ.

What was measured:
Format in all cases: cell-based, human
[1] = system: KDR+ CXCR4+ mesoderm; experiment: Specification of definitive hemogenic endothelium (HE) and hematopoietic potential from isolated day 3 WNTd KDR+ CXCR4+ mesoderm; conditions: for hematopoietic potential of the CD34+ HE specified: retinol (5 μM) added on day 3 to isolated KDR+ CXCR4+ mesoderm
Method: The hESC lines H1 and H9, and human iPSC1 were maintained on irradiated mouse embryonic fibroblasts in hESC media as described previously (Sturgeon, C. M., et al. Nat Biotechnol 32, 554-561, (2014); Thomson, J. A. et al. Science 282, 1145-1147 (1998); Dege, C. et al., J Vis Exp, (2017)). For differentiation, hPSC were cultured on Matrigel-coated plasticware (BD Biosciences, Bedford, MA) for 24 hours, followed by embryoid body (EB) generation, as described previously (Kennedy, M. et al. Cell Rep 2, 1722-1735, (2012); Dege, C. et al. J Vis Exp, (2017); Ditadi, A. et al. Methods 101, 65-72, (2016)). Briefly, hPSCs were dissociated with brief trypsin-EDTA (0.05%) treatment, followed by scraping. Embryoid body (EB) aggregates were resuspended in SFD media34 supplemented with L-glutamine (2 mM), ascorbic acid (1 mM), monothioglycerol (MTG, 4×10^−4 M; Sigma), transferrin (150 μg/mL), and BMP-4 (10 ng/mL). 24 hours later, bFGF (5 ng/mL) was added. On the second day of differentiation, ACTIVIN A, SB-431542 (6 μM), CHIR99021 (3 μM), and/or IWP2 (3 μM) were added. On the third day, EBs were changed to StemPro-34 media supplemented as above, with bFGF (5 ng/mL) and VEGF (15 ng/mL) and treated with either 10 μM of the pan-ALDH inhibitor DEAB (4-Diethylaminobenzaldehyde, Sigma #D86256; “RA-independent”) or 5 μM retinol (ROH, Sigma #R7632; “RA-dependent”). On day 6, IL-6 (10 ng/mL), IGF-1 (25 ng/mL), IL-11 (5 ng/mL), SCF (50 ng/mL), EPO (2 U/mL final) with DEAB or ROH were added. HE was FACS-isolated for terminal assays on day 8 (DEAB) or day 10 (ROH). All differentiation cultures were maintained at 37° C. All embryoid bodies and mesodermal aggregates were cultured in a 5% CO2/5% 02/90% N2 environment. All recombinant factors are human and were purchased from Biotechne. Analysis of hematopoietic colony potential via Methocult (Stem Cell Technologies) was performed as described previously (Ditadi, A. et al. Nat Cell Biol 17, 580-591, (2015); Kennedy, M. et al. Cell Rep 2, 1722-1735, (2012)).
For isolation of mesodermal populations, day 3 of differentiation WNTd KDR+ CD235a^negCXCR4+/neg and WNTi KDR+ CD235a+ cells were FACS-isolated and reaggregated at 250,000 cells/mL in day 3 media, as above. Cultures were plated in 250 μL volumes in a 24 well low-adherence culture plate, and grown overnight in a 37° C. incubator, with a 5% CO2/5% 02/90% N2 environment. As specified, RA was manipulated with either 5 μM ROH or ATRA (Sigma #R2625), or 10 μM DEAB. On day 4, an additional 1 mL of RA-supplemented day 3 media was added to reaggregates. On day 6 of differentiation, CD34+ and CD43+ cells from WNTi cultures were FACS-isolated for terminal assays. WNTd cultures were fed as normally, but without additional RA manipulation. CD34+ cells were sorted from all WNTd populations on day 8 of differentiation.
CD34+CD43^neg hemogenic endothelium was isolated by FACS and allowed to undergo the endothelial-to-hematopoietic transition as described previously (Ditadi, A. et al., Nat Cell Biol 17, 580-591, (2015); Ditadi, A. et al., Methods 101, 65-72, (2016)). Briefly, cells (CD34+CD43^neg or CD34+CD43^negCD73^negCXCR4neg cells) were aggregated overnight at a density of 2×10^5 cells/mL in StemPro-34 media supplemented with L-glutamine (2 mM), ascorbic acid (1 mM), monothioglycerol (MTG, 4×10^−4 M; Sigma-Aldrich), holo-transferrin (150 μg/mL), TPO (30 ng/mL), IL-3 (30 ng/mL), SCF (100 ng/mL), IL-6 (10 ng/mL), IL-11 (5 ng/mL), IGF-1 (25 ng/mL), EPO (2 U/mL), VEGF (5 ng/mL), bFGF (5 ng/mL), BMP4 (10 ng/mL), FLT3L (10 ng/mL), and SHH (20 ng/mL). Aggregates were spotted onto Matrigel-coated plasticware and were cultured for additional 3 or 9 days for WNTi and WNTd cultures, respectively. Cultures were maintained in a 37° C. incubator, in a 5% CO2/5% 02/90% N2 environment. Hemato-endothelial cultures were subsequently harvested by trypsinization, and assessed for hematopoietic potential by Methocult in a 37° C. incubator, in a 5% CO2/air environment. […]

[2] = system: WNTd differentiation cultures; experiment: Hematopoietic potential of HE from bulk WNTd differentiation cultures treated on day 3 (erythro-myeloid CFC, BFU-E globin); conditions: ROH on day 3 (RAd HE) compared with DEAB (RAi HE)
Method: (§1) The hESC lines H1 and H9, and human iPSC1 were maintained on irradiated mouse embryonic fibroblasts in hESC media as described previously (Sturgeon, C. M., et al. Nat Biotechnol 32, 554-561, (2014); Thomson, J. A. et al. Science 282, 1145-1147 (1998); Dege, C. et al., J Vis Exp, (2017)). For differentiation, hPSC were cultured on Matrigel-coated plasticware (BD Biosciences, Bedford, MA) for 24 hours, followed by embryoid body (EB) generation, as described previously (Kennedy, M. et al. Cell Rep 2, 1722-1735, (2012); Dege, C. et al. J Vis Exp, (2017); Ditadi, A. et al. Methods 101, 65-72, (2016)). Briefly, hPSCs were dissociated with brief trypsin-EDTA (0.05%) treatment, followed by scraping. […]
(§2) CD34+CD43^neg hemogenic endothelium was isolated by FACS and allowed to undergo the endothelial-to-hematopoietic transition as described previously (Ditadi, A. et al., Nat Cell Biol 17, 580-591, (2015); Ditadi, A. et al., Methods 101, 65-72, (2016)). […] Hemato-endothelial cultures were subsequently harvested by trypsinization, and assessed for hematopoietic potential by Methocult in a 37° C. incubator, in a 5% CO2/air environment. The experiments were performed in triplicate and the mean (±standard deviation) of the IC50 values calculated for each data set is reported. […]

[3] = system: HOXA genes; experiment: HOXA gene expression in CXCR4+ mesoderm-derived CD34+ cells; conditions: after ROH treatment of CXCR4+ mesoderm on day 3
Method: Total RNA was prepared for whole-transcriptome sequencing using the Clontech SMARTer kit and was sequenced using an Illumina HiSeq 2500 with 1×50 single reads. Reads were aligned to hg19 using STAR and gene counts were obtained using Subread. TMM normalization and RPKM counts were calculated using EdgeR. Gene Set Enrichment Analysis (GSEA, version 4.0.1) and the Database for Annotation, Visualization, and Integrated discovery (DAVID, version 6.8) were used for differential expression analysis. Morpheus (software.broadinstitute.org/morpheus) was used to create heatmaps and perform hierarchical clustering (one minus the Pearson correlation with average linkage). Bulk RNA-seq comparison to scRNA-seq was performed using the SingleR package (version 1.0.1)(Aran, D. et al., Nat Immunol 20, 163-172, (2019)) implemented in R (version 3.5.1). qRT-PCR was performed as previously described (Sturgeon, C. M., et al., Nat Biotechnol 32, 554-561, (2014)). Briefly, total RNA was isolated with the RNAqueous RNA Isolation Kit (Ambion), followed by reverse transcription using random hexamers and Oligo (dT) with Superscript III Reverse Transcriptase (Invitrogen). Real-time quantitative PCR was performed on a StepOnePlus thermocycle (Applied Biosystems), using Power Green SYBR mix (Invitrogen). […] Gene expression was evaluated as DeltaCt relative to control (ACTB). […]

[4] = system: WNTd KDR+ CXCR4neg mesoderm; experiment: Definitive hematopoietic development / HE specification from isolated day 3 WNTd KDR+ CXCR4neg mesoderm
Method: The hESC lines H1 and H9, and human iPSC1 were maintained on irradiated mouse embryonic fibroblasts in hESC media as described previously (Sturgeon, C. M., et al. Nat Biotechnol 32, 554-561, (2014); Thomson, J. A. et al. Science 282, 1145-1147 (1998); Dege, C. et al., J Vis Exp, (2017)). For differentiation, hPSC were cultured on Matrigel-coated plasticware (BD Biosciences, Bedford, MA) for 24 hours, followed by embryoid body (EB) generation, as described previously (Kennedy, M. et al. Cell Rep 2, 1722-1735, (2012); Dege, C. et al. J Vis Exp, (2017); Ditadi, A. et al. Methods 101, 65-72, (2016)). Briefly, hPSCs were dissociated with brief trypsin-EDTA (0.05%) treatment, followed by scraping. Embryoid body (EB) aggregates were resuspended in SFD media34 supplemented with L-glutamine (2 mM), ascorbic acid (1 mM), monothioglycerol (MTG, 4×10^−4 M; Sigma), transferrin (150 μg/mL), and BMP-4 (10 ng/mL). 24 hours later, bFGF (5 ng/mL) was added. On the second day of differentiation, ACTIVIN A, SB-431542 (6 μM), CHIR99021 (3 μM), and/or IWP2 (3 μM) were added. On the third day, EBs were changed to StemPro-34 media supplemented as above, with bFGF (5 ng/mL) and VEGF (15 ng/mL) and treated with either 10 μM of the pan-ALDH inhibitor DEAB (4-Diethylaminobenzaldehyde, Sigma #D86256; “RA-independent”) or 5 μM retinol (ROH, Sigma #R7632; “RA-dependent”). On day 6, IL-6 (10 ng/mL), IGF-1 (25 ng/mL), IL-11 (5 ng/mL), SCF (50 ng/mL), EPO (2 U/mL final) with DEAB or ROH were added. HE was FACS-isolated for terminal assays on day 8 (DEAB) or day 10 (ROH). All differentiation cultures were maintained at 37° C. […]
as §2, with “environment.” for “environment. The experiments were performed in triplicate and the mean (±standard deviation) of the IC50 values calculated for each data set is reported.”

[5] = system: WNTi CD235a+ mesoderm; experiment: Extra-embryonic-like HE specification from isolated day 3 WNTi CD235a+ mesoderm
Method: as §1, with “scraping. Embryoid body (EB) aggregates were resuspended in SFD media34 supplemented with L-glutamine (2 mM), ascorbic acid (1 mM), monothioglycerol (MTG, 4×10^−4 M; Sigma), transferrin (150 μg/mL), and BMP-4 (10 ng/mL). 24 hours later, bFGF (5 ng/mL) was added.” for “scraping.”
as §2, with “environment.” for “environment. The experiments were performed in triplicate and the mean (±standard deviation) of the IC50 values calculated for each data set is reported.”

## CC1=C(/C=C/C(C)=C/C=C/C(C)=C/CO)C(C)(C)CCC1 [ROH, retinol]
[1]; ROH treatment on day 3, 4 or 5 of CXCR4+ mesoderm
  stage at which ROH treatment results in specification of HE: on day 3 of differentiation, but not thereafter, resulted in the specification of HE
[1]
  hematopoietic potential of the CD34+ HE specified: harbored definitive erythroid, myeloid, and lymphoid hematopoietic potential
[1]; listed as retinol
  hematopoietic potential of the CD34+ HE specified: capable of erythro-myeloid-lymphoid multilineage hematopoiesis
[2]
  erythro-myeloid CFC potential of the resulting HE: significantly more erythro-myeloid CFC potential than RAi HE
  fetal (HBG) globin expression of resultant BFU-E: higher expression of fetal (HBG) globin
[3]
  HOXA gene expression: elevated HOXA gene expression

## CCN(CC)c1ccc(C=O)cc1 [DEAB, 4-Diethylaminobenzaldehyde]
[1]; DEAB (ALDH inhibitor) added to KDR+ CXCR4+ mesoderm culture
  hematopoietic potential of the CD34+ population obtained: completely lacked any hematopoietic potential
[4]; DEAB added to KDR+ CXCR4neg mesoderm differentiation, any stage
  impact on definitive hematopoietic specification: gives rise to definitive hematopoietic progenitors; also recorded: no negative impact

## CC1=C(/C=C/C(C)=C/C=C/C(C)=C/C(=O)O)C(C)(C)CCC1 [ATRA, all-trans-retinoic acid]
[1]; 1 nM ATRA on isolated KDR+ CXCR4+ mesoderm, day 3 of differentiation
  specification of definitive HE: robust specification of definitive HE
[1]; ATRA concentrations lower than 1 nM and higher than 10 nM, isolated KDR+ CXCR4+ mesoderm
  specification of HE: failed to specify HE
[5]
  ATRA concentration repressive to extra-embryonic-like HE specification: > 1 nM
[4]; 1-10 nM ATRA, WNTd KDR+ CXCR4neg mesoderm
  effect on definitive hematopoietic development: no significant effect
[4]; WNTd KDR+ CXCR4neg mesoderm
  ATRA concentration repressive to HE specification: > 100 nM
